For experiment [1], the system named is MI mice. Put plainly: hippocampal FDG metabolism by microPET. Type of experiment: in vivo, mouse. To be noted: treated MI mice; percentage of the FDG uptake in the SHAM mice (SHAM 100±3, MI 70±3). From the text: FIG. 4A is a schematic representation of a hippocampal brain slice for LTP experiments and the positioning of the stimulating and recording electrodes.
Thereafter, [^18F]fluorodeoxyglucose (FDG) with positron emission tomography (PET) was used to measure energy consumption in neurons, which reflects neuronal communication signals and the integrative local neuronal activity. Deteriorating brain glucose metabolism measured by FDG-PET has been used as a clinical marker for Alzheimer's disease diagnosis. Thus, hippocampal FDG metabolism was evaluated in the experimental groups (FIGS. 4E and 4F).

Experiment [2] addresses T1, RyR2 (Mus musculus, UniProt E9Q401). Put plainly: ER Ca2+ leak measured in microsomes from mouse hippocampi. To be noted: hippocampal microsomes from treated MI mice, versus untreated MI. It is filed as in vivo. Further details: Hippocampal RyR2 was immunoprecipitated and immunoblotted to detect PTMs; from tissue; host or cells: mouse hippocampus (SHAM / MI mice, treated in vivo). As to the method: FIG. 3E are graphs of RyR2 Po, To and Tc in the same groups as FIG. 3D. FIG. 3F is a graph of Ca^2+ leak measured in microsomes from mouse hippocampi of the same groups as FIG. 3D. […] Individual values are shown with the mean±s.e.m. […] Data are derived from biologically independent samples. All statistical tests were two sided.
PTMs and functional abnormalities of neuronal RyR2 in HF hippocampal samples from MI mice were then evaluated and compared them to SHAM. Hippocampal RyR2 was immunoprecipitated and immunoblotted to detect PTMs.
Target sequence in this assay (E9Q401 whole entry): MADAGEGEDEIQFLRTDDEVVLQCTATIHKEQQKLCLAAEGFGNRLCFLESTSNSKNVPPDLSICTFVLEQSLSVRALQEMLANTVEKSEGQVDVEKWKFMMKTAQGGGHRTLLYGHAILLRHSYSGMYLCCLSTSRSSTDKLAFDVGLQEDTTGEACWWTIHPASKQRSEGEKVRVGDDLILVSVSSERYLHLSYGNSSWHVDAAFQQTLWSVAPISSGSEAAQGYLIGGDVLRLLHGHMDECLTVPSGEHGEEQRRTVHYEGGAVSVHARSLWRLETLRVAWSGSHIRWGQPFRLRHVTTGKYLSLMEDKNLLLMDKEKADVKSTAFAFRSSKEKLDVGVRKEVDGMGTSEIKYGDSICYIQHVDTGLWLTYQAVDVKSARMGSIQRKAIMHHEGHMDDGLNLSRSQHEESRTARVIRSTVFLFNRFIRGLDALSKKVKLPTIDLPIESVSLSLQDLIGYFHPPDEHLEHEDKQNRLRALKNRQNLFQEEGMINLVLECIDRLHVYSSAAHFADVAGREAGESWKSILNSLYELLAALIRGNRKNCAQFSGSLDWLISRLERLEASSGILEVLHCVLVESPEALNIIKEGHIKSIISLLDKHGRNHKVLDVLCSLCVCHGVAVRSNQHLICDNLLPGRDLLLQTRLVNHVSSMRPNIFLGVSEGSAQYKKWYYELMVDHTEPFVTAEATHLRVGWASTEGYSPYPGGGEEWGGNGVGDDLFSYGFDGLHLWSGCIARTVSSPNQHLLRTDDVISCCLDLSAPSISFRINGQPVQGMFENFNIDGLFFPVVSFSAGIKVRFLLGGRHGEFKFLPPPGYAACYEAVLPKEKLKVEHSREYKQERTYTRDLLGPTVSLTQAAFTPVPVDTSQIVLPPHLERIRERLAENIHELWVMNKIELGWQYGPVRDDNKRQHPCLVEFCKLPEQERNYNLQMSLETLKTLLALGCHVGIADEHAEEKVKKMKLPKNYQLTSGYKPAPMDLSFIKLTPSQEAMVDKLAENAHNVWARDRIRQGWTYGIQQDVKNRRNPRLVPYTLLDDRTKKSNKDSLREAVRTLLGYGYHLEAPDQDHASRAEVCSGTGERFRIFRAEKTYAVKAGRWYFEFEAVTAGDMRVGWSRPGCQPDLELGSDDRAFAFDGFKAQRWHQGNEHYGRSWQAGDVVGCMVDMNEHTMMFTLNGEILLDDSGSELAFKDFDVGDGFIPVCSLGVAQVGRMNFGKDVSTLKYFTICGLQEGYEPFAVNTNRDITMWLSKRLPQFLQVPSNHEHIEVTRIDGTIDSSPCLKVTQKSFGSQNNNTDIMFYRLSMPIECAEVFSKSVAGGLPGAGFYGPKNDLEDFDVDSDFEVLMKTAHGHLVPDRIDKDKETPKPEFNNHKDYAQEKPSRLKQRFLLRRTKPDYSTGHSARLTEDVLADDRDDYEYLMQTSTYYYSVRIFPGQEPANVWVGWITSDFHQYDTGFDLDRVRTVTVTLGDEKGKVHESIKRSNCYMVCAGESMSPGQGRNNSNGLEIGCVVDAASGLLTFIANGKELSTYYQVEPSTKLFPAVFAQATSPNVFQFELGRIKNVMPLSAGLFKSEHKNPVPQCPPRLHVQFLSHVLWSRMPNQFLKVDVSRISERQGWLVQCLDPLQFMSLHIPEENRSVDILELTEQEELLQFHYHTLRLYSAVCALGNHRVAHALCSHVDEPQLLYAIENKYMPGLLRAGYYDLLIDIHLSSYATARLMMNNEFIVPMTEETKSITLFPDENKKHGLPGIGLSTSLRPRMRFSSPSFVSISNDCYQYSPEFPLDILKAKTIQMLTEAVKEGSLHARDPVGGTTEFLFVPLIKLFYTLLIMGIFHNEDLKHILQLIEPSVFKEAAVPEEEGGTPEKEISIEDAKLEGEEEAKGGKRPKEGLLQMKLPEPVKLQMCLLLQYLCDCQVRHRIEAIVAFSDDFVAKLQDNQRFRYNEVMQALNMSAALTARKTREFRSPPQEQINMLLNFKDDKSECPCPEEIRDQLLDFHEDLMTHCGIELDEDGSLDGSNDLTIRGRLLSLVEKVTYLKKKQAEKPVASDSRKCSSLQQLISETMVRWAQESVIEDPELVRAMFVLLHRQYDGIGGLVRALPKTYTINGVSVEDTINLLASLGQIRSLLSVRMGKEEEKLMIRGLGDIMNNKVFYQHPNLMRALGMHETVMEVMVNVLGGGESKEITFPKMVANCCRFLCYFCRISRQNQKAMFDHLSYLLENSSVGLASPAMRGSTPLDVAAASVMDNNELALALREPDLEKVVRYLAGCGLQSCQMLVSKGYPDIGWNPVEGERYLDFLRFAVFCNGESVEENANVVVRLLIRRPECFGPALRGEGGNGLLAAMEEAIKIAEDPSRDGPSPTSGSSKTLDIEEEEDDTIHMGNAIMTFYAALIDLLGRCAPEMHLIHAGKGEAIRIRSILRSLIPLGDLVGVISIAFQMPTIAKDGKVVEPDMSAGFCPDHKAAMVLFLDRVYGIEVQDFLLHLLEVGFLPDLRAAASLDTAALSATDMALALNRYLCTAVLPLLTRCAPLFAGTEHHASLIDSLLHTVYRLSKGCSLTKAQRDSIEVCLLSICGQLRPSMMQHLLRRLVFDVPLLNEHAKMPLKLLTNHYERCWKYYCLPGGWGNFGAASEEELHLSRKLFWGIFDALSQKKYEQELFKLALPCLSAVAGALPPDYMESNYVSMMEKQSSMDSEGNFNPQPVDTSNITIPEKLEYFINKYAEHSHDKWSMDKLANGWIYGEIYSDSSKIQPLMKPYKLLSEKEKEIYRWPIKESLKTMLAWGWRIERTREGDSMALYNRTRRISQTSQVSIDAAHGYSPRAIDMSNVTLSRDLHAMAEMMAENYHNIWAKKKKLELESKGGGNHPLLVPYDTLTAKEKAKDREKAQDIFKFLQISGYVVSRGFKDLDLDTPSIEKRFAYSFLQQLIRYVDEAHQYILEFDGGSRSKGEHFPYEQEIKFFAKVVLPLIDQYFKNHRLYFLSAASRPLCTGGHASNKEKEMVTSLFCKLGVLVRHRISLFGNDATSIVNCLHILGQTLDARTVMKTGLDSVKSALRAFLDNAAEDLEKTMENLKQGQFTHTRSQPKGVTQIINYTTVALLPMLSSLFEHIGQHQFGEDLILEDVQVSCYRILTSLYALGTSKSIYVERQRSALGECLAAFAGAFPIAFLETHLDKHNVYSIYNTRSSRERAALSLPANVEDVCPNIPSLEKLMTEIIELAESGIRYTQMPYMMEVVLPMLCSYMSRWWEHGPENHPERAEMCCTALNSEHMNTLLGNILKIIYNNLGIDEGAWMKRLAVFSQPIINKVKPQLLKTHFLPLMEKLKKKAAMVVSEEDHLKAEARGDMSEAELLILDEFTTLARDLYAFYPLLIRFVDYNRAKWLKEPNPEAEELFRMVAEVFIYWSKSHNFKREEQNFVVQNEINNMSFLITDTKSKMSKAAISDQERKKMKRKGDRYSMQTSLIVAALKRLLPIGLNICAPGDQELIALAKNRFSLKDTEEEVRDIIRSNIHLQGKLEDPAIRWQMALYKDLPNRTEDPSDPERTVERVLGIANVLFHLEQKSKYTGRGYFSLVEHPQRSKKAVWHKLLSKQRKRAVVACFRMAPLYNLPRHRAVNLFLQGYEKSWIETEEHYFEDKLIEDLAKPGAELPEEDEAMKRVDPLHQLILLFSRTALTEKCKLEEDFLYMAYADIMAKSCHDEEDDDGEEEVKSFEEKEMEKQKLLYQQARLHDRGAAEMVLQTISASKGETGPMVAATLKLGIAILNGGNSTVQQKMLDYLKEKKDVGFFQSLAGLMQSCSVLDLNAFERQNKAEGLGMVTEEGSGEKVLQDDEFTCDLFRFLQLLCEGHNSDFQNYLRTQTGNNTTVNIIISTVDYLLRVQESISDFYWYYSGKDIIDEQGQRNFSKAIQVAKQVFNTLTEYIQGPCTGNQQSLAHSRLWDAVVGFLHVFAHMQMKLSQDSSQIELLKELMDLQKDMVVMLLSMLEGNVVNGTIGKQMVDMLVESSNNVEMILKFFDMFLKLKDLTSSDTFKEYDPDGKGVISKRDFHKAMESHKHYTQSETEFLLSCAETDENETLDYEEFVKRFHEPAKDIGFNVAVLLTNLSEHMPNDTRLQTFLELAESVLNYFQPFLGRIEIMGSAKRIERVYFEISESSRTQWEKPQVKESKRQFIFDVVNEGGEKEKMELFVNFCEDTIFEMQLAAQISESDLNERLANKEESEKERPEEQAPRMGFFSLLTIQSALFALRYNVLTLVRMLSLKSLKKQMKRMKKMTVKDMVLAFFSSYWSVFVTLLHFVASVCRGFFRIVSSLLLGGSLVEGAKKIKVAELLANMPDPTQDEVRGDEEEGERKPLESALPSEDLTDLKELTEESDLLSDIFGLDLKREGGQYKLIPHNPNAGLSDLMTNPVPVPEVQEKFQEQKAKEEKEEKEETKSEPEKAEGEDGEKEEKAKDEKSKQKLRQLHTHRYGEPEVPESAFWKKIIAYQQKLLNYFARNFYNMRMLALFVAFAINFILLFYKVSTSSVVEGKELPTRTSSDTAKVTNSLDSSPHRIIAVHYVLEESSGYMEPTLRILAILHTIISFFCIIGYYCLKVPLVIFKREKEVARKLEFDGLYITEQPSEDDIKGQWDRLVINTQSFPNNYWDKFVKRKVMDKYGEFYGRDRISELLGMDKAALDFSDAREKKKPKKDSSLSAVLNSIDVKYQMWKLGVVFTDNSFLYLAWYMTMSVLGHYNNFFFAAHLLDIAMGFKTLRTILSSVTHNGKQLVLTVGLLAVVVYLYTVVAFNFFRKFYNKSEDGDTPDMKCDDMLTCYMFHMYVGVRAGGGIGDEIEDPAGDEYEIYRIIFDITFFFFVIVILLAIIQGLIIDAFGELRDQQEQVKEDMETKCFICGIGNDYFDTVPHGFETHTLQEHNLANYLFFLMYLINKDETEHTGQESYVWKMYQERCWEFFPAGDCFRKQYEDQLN
Target sequence in this assay (Q9Z2I2 whole entry partner): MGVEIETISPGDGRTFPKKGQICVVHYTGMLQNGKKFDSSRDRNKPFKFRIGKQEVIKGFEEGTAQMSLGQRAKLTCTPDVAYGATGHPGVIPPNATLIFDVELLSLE

Experiment [3] relates to HIV-1-associated neurocognitive disorders. To be noted: rat model; cited from earlier work.
For experiment [4], the system named is germinal matrix hemorrhage. To be noted: cited from earlier work.
Experiment [5] concerns mouse model of HF (myocardial infarction, MI). Put plainly: novel object recognition test (hippocampal-dependent short-term memory). Type of experiment: in vivo. To be noted: MI mice, treated; MI 15%±4%, SHAM 48%±5%. From the text:
(§1) One-way analysis of variance (ANOVA) was used to compare the difference between the six groups in FIGS. 2B, 2C, 2E and 2F. Tukey's test was used for multiple comparisons; two-way ANOVA was used in FIG. 2D. […] All statistical tests were two sided with the data derived from biologically independent samples.
Next, a novel object recognition test was used to evaluate hippocampal-dependent short-term memory. (see Liu, X. et al. Role of leaky neuronal ryanodine receptors in stress-induced cognitive dysfunction. Cell 150, 1055-1067 (2012); and Bevins, R. A. & Besheer, J. Object recognition in rats and mice: a one-trial non-matching-to-sample learning task to study ‘recognition memory’. Nat. Protoc. 1, 1306-1311 (2006)).

For experiment [6] the test system is unchanged. Nature of the experiment: MWM test (long-term spatial learning and memory) with probe trial. Type of experiment: in vivo. To be noted: MI mice, treated; for target crossings / time spent in the target quadrant: 60-s probe trial day 5; for target crossings: MI 2.4±0.3, SHAM 4.6±0.3; for time spent in the target quadrant: MI 17±1 s, SHAM 25±2 s; for latency to find and reach the hidden platform: day 4 training trials, MI 30±1 s, SHAM 21±2 s. On the procedure:
as §1
A MWM test was performed to assess hippocampal-dependent long-term spatial learning and memory.
A probe trial was performed on day 5 of the MWM test.

Experiment [7] deals with amyloid and Tau pathology. The note with it: Alzheimer's transgenic mice; cited from earlier work.
Experiment [8] relates to healthy individuals. The note with it: sustaining cognitive performance over time; cited from earlier work.
Experiment [9] concerns the target T1, RyR2. Put plainly: caffeine-induced Ca2+ release in primary hippocampal neurons. It is filed as cell-based. To be noted: 10 mM caffeine; neurons treated with isoproterenol plus compound. Further details: representative images of 14-d cultured hippocampal neurons stimulated with 10 mM caffeine; endogenous in cells; host or cells: primary hippocampal neurons, 14 d in culture. On the procedure: FIG. 5A presents representative images of 14-d cultured hippocampal neurons stimulated with 10 mM caffeine. For each condition, the Ca^2+ levels are shown at baseline, during stimulation and at recovery. […] Individual values are shown with the mean±s.e.m. […] Scale bar, 10 μm. A reduction in caffeine-induced Ca^2+ release indicates a Ca^2+ depleted ER due to persistent RyR2-mediated Ca^2+ leak. Data are derived from biologically independent samples. All statistical tests were two sided.
To determine whether the activation of the adrenergic pathway indeed causes neuronal RyR2-mediated ER Ca^2+ leak, caffeine (10 mM), a well characterized RyR agonist, was used to assess RyR2 function specifically in hippocampal neurons without interference of other cell types such as glial cells or astrocytes.
Target sequence in this assay (E9Q401 whole entry): as the sequence (E9Q401 whole entry) above

Results on two molecules are retold here after patent US20250255882A1, “TREATMENT OF CARDIAC CONDITION RELATED COGNITIVE DYSFUNCTION” (The Trustees of Columbia University in the City of New York, priority 2024, published 2025).

Structures are written as SMILES.

Take `Fc1ccc(Cl)cc1-c1nc(Nc2ccncc2)c2nccnc2n1` [SD-208]: the “hippocampal FDG metabolism” value in experiment [1] is listed as 138±22. Also, the “ER Ca2+ leak” value in experiment [2] is recorded as “reduced”. For the same molecule, the spatial learning result in experiment [3] is “improved”. In experiment [4] (rat model of germinal matrix hemorrhage), the “motor and cognitive function” value is “partial recovery”. Also, the germinal matrix hemorrhage entry in experiment [4] (rat model) is recorded as “inhibit germinal matrix hemorrhage”. Also, the discrimination index in experiment [5] is on record as 35%±6%. Also, in experiment [6], the target crossings stood at 4.5±0.6; the “time spent in the target quadrant” value was determined as 27 ± 2 s; the “latency to find and reach the hidden platform” value was found to be 15 ± 3 s.
As for `CC(C)NCC(O)COc1cccc2ccccc12` (stereo not shown) [propranolol], the “hippocampal FDG metabolism” value in experiment [1] is 145±26. Also, the “amyloid and Tau pathology” value in experiment [7] is “reduced”. In experiment [8], the effects on cognition result is reported as “beneficial effects”. The “prevention of the small caffeine-induced Ca2+ release of isoproterenol-treated neurons” value in [9] is on record as “prevented”. In addition, in [6], the target crossings is on record as 3.5±0.6; the “time spent in the target quadrant” value worked out at 26 ± 2 s; the “latency to find and reach the hidden platform” value was 17 ± 3 s.
